Measured values: US20190091163A1, “NANO-SIZED DRUG DELIVERY STRUCTURE” (INSTITUT NATIONAL DE LA SANTE ET DE LA RECHERCHE MEDICALE …, priority 2016, published 2019)

Columns and labels:
SKBR3 cells [1] = assay: Uptake mechanism of GO nanodrug structures with endocytosis inhibitors (flow cytometry); format: cell-based, human; conditions: 1 hour pre-incubation with inhibitor, 15 mins with nanoparticles, FIG. 10
Method: The uptake mechanism of the GO nanodrug structures was then investigated using various endocytosis inhibitors in comparison with the graphene oxide drug metamaterial described here-above, free of any drug active (GO control).
Different endocytosis inhibitors were tested: • Cytochalasin D, an inhibitor of macropinocytosis-dependent endocytosis in a dosage of 10, 5 and 1 (μM); • Genistein, an inhibitor of caveolae-mediated endocytosis in a dosage of 100, 30 and 25 (μM); and • Chlorpromazine (CMZ), an inhibitor of clathrin-mediated endocytosisin a dosage of 5, 1 and 0.5 (μM).
Cellular internalization of each nanostructure was followed as described here-after.
SKBR3 cells were seeded to a density of 1.0×10^5 cells per well in a 12-well plates followed by an overnight incubation. The cells were rinsed with PBS and pre-incubated with different concentrations of the appropriate endocytic inhibitor in serum-free RPMI 1640 media, for 1 hour. The media was then replaced with the same concentration of inhibitors in serum-containing RPMI 1640 media, the nanoparticles were added and cells were incubated for 15 mins. Following incubation, the medium was removed and cells were rinsed several times with cold PBS. The cells were collected with trypsin EDTA and analyzed using flow cytometry analysis.

[2] = system: MDA-MB-231 (human breast basal epithelial cancer cells); conditions: MDA-MB-231 cells, different concentrations of the peptide; Kawamoto et al. 2013; cited from earlier work
SKBR3 cells [3] = assay: Uptake efficiency of GO-HER2 antibody nanodrug structures after preincubation with Lapatinib; format: cell-based, human; conditions: SKBR3 cells preincubated with Lapatinib; FIG. 11
From the text: Abscissa: amount of Lapatinib (μM). Ordinate: uptake efficiency (%).
Lapatinib is a known HER2 tyrosine kinase inhibitor, which induces stabilization and accumulation of HER2.

Row | Compound | inhibition of internalization (cellular uptake) of GO nanodrug structures (SKBR3 cells [1]) | also measured
1 | O=c1c(-c2ccc(O)cc2)coc2cc(O)cc(O)c12 [Genistein] | did not show any notable inhibition | –
2 | KLLLKLLKKLLKLLKKK (anti-cancer cationic lytic peptide) [cationic lytic anti-cancer peptide, disintegrates the cell membrane] | – | effect on cell proliferation [2]: dose-dependent reduction in cell proliferation
3 | CN(C)CCCN1c2ccccc2Sc2ccc(Cl)cc21 [Chlorpromazine] | did not show any notable inhibition | –
4 | C=C1[C@@H](C)[C@H]2[C@H](Cc3ccccc3)NC(=O)[C@]23[C@H](OC(C)=O)/C=C/[C@@](C)(O)C(=O)[C@@H](C)C/C=C/[C@H]3[C@@H]1O [Cytochalasin D] | significantly inhibited the internalization | –
5 | CS(=O)(=O)CCNCc1ccc(-c2ccc3ncnc(Nc4ccc(OCc5cccc(F)c5)c(Cl)c4)c3c2)o1 [Lapatinib] | – | effect on uptake efficiency of GO-HER2 antibody nanodrug structures (SKBR3 cells [3]): dose-dependent reduction in intake
